Assay results published in patent publication US20030118631A1, “Anti-microbial soluble hemostatic gauze and method of making same” (priority 2001, published 2003).

Key:
Fusobacterium Nuleatum = test: Agar dilution minimum inhibition concentration, anaerobic growth base; type: cell-based; settings: anaerobic (nitrogen), 37° C., 48 hours, mg antibiotic per liter
Klebsiella Pneumoniae = test: Agar dilution minimum inhibition concentration, aerobic growth base; type: cell-based; settings: 37° C., 48 hours, mg antibiotic per liter
Propionibacterium = test: Agar dilution minimum inhibition concentration, anaerobic growth base; type: cell-based; settings: anaerobic (nitrogen), 37° C., 48 hours, mg antibiotic per liter
Bifidobacterium Longum = test: as above; type: cell-based; settings: anaerobic (nitrogen), 37° C., 48 hours, mg antibiotic per liter
Peptostrepococcus = settings: anaerobic (nitrogen), 37° C., 48 hours, mg antibiotic per liter
Protocol: (§1) To measure the effectiveness of the our antimicrobial gauze, we tested an antibiotic containing soluble hemostatic gauze material made in accordance with the present invention against the same antibiotic alone. We prepared a growth base for anaeroboic bacteria by mixing 20 grams glucose, 5 grams NaCl, 10 grams protein base, 5 grams yeast powder, 3 grams soluble starch, 20 grams agar and 0.4 grams amino acid. These materials were dissolved in 150 ml distilled water to form a liver paste solution. Then we added 1000 ml. water, adjusted the Ph to 7.2 and autoclaved the material. We prepared another growth base for aerobic bacteria by combining 10 grams beef paste, 10 grams protein base, 3 grams soluble starch, 5 grams NaCl and 20 grams agar in distilled water. Then we added 1000 ml. water, adjusted the Ph to 7.2 and autoclaved the material. We also prepared a series of solutions of the antibiotic chlindamycin in a Ph7.8 phospharese solution. The solutions were: 1280 mg antibiotic/L, 640 mg/L, 320 mg/l, 160 mg/L, 80 mg/L, 40 mg/L, 20 mg/l, 10 mg/L, 5 mg/L, 2.5 mg/L and 1.25 mg/L. We then added 2 ml of each of the diluted antibiotic solutions into a petri dish. Next we added 18 ml of warm (50° C.) autoclaved bacteria growth base prepared as described above for the type of bacteria (anaerobic or aerobic) to be tested to petri dishes to make growth plates. At that point we had growth plates with final antibiotic concentrations of 128, 64, 32, 16, 8, 4, 2, 1, 0.5, 0.25, and 0.125 mg antibiotic per liter.
(§2) We prepared a second series of growth bases with anti-microbial soluble hemostatic gauze to which the antibiotic chlindamycin had been linked. The gauze was prepared in accordance with the following steps.

Actinomyces = settings: anaerobic (nitrogen), 37° C., 48 hours, mg antibiotic per liter
Protocol: as §1, §2

Bacteroides Vulgatus = settings: anaerobic (nitrogen), 37° C., 48 hours, mg antibiotic per liter
Protocol: as §1, §2

Bifidobacterium Infantis = test: Agar dilution minimum inhibition concentration, anaerobic growth base; type: cell-based; settings: anaerobic (nitrogen), 37° C., 48 hours, mg antibiotic per liter
Bacillus Pyocyaneus = test: Agar dilution minimum inhibition concentration, aerobic growth base; type: cell-based; settings: 37° C., 48 hours, mg antibiotic per liter
[1] = test system: Bacillus Canalis Capsulatus; test: as above; type: cell-based; settings: 37° C., 48 hours, mg antibiotic per liter
Bacteroides Ovatus = test: Agar dilution minimum inhibition concentration, anaerobic growth base; type: cell-based; settings: anaerobic (nitrogen), 37° C., 48 hours, mg antibiotic per liter
Clostridium Perfringens = type: cell-based; settings: anaerobic (nitrogen), 37° C., 48 hours, mg antibiotic per liter
Bacteroides Fragilis = test: Agar dilution minimum inhibition concentration, anaerobic growth base; type: cell-based; settings: anaerobic (nitrogen), 37° C., 48 hours, mg antibiotic per liter
Streptococcus Psittac = test: Agar dilution minimum inhibition concentration, aerobic growth base; type: cell-based; settings: 37° C., 48 hours, mg antibiotic per liter
Lactobacillus Plantarum = test: Agar dilution minimum inhibition concentration, anaerobic growth base; type: cell-based; settings: anaerobic (nitrogen), 37° C., 48 hours, mg antibiotic per liter
Streptococcus Faccalis = test: Agar dilution minimum inhibition concentration, aerobic growth base; type: cell-based; settings: 37° C., 48 hours, mg antibiotic per liter
Citrobacter Sp. = test: as above; type: cell-based; settings: 37° C., 48 hours, mg antibiotic per liter
Staphylococcus Aureus = test: as above; type: cell-based; settings: 37° C., 48 hours, mg antibiotic per liter
[2] = test system: Bifidobacterium Adolescents; test: Agar dilution minimum inhibition concentration, anaerobic growth base; type: cell-based; settings: anaerobic (nitrogen), 37° C., 48 hours, mg antibiotic per liter
Serratia = test: Agar dilution minimum inhibition concentration, aerobic growth base; type: cell-based; settings: 37° C., 48 hours, mg antibiotic per liter
Pseudomonas Aeruginosa = test: as above; type: cell-based; settings: 37° C., 48 hours, mg antibiotic per liter
[3] = test system: Staphylococcus Epidermidis; test: as above; type: cell-based; settings: 37° C., 48 hours, mg antibiotic per liter
[4] = test system: Lactobacillus Acidophilus; test: Agar dilution minimum inhibition concentration, anaerobic growth base; type: cell-based; settings: anaerobic (nitrogen), 37° C., 48 hours, mg antibiotic per liter
Bacillus Coli Immobilis = test: Agar dilution minimum inhibition concentration, aerobic growth base; type: cell-based; settings: 37° C., 48 hours, mg antibiotic per liter
Bacillus Coli Similis = test: as above; type: cell-based; settings: 37° C., 48 hours, mg antibiotic per liter
Streptococcus Gamma = test: as above; type: cell-based; settings: 37° C., 48 hours, mg antibiotic per liter

CCC[C@@H]1C[C@@H](C(=O)N[C@@H]([C@H]2O[C@H](SC)[C@H](O)[C@@H](O)[C@H]2O)[C@H](C)Cl)N(C)C1 [Chlindamycin, chlindamycin]
Minimum Inhibited Concentration (Fusobacterium Nuleatum): 4 mg/L | Minimum Inhibited Concentration (Klebsiella Pneumoniae): 32 mg/L | Minimum Inhibited Concentration (Propionibacterium): 0.25 mg/L | Minimum Inhibited Concentration (Bifidobacterium Longum): 64 mg/L | Minimum Inhibited Concentration (Peptostrepococcus): 0.125 mg/L | Minimum Inhibited Concentration (Actinomyces): 0.125 mg/L | Minimum Inhibited Concentration (Bacteroides Vulgatus): 0.125 mg/L | Minimum Inhibited Concentration (Bifidobacterium Infantis): 64 mg/L | Minimum Inhibited Concentration (Bacillus Pyocyaneus): 128 mg/L | Minimum Inhibited Concentration [1]: 64 mg/L | Minimum Inhibited Concentration (Bacteroides Ovatus): 2 mg/L | Minimum Inhibited Concentration (Clostridium Perfringens): 0.125 mg/L | Minimum Inhibited Concentration (Bacteroides Fragilis): 0.5 mg/L | Minimum Inhibited Concentration (Streptococcus Psittac): 1 mg/L | Minimum Inhibited Concentration (Lactobacillus Plantarum): 64 mg/L | Minimum Inhibited Concentration (Streptococcus Faccalis): 1 mg/L | Minimum Inhibited Concentration (Citrobacter Sp.): 64 mg/L | Minimum Inhibited Concentration (Staphylococcus Aureus): 1 mg/L | Minimum Inhibited Concentration [2]: 16 mg/L | Minimum Inhibited Concentration (Serratia): 32 mg/L | Minimum Inhibited Concentration (Pseudomonas Aeruginosa): 128 mg/L | Minimum Inhibited Concentration [3]: 0.5 mg/L | Minimum Inhibited Concentration [4]: 32 mg/L | Minimum Inhibited Concentration (Bacillus Coli Immobilis): 128 mg/L | Minimum Inhibited Concentration (Bacillus Coli Similis): 128 mg/L | Minimum Inhibited Concentration (Streptococcus Gamma): 1 mg/L
